Results taken from patent publication US6417194B1, “Quinolines and quinazolines useful in therapy” (Pfizer, Inc., priority 1997, dated 2002).

System: human prostate
Assay: Contractile responses of human prostate
Conditions: antagonist affinity estimate against (−)-noradrenaline contractions of prostatic tissue strips; single antagonist concentration, incubated 2 hours
Description: Contractile Responses of Human Prostate
Prostatic tissue was cut into longitudinal strips (approximately 3×2×10 mm) and suspended in organ baths under a resting tension of 1 g in Krebs Ringer bicarbonate of the following composition (mM): NaCl (119), KCl (4.7), CaCl2 (2.5), KH2PO4 (1.2), MgSO4 (1.2), NaHCO3 (25), glucose (11), and gassed with 95% O2/5% CO2.
The solution also contained […]. Tissues were exposed to a sensitising dose of (−)-noradrenaline ([…]) and washed over a 45 minute period. Isometric contractions were obtained in response to cumulative additions of (−)-noradrenaline to obtain control curves in all tissues. A further curve was then generated in the presence or absence of antagonist (incubated for 2 hours). Antagonist affinity estimates (pA2) were determined using a single concentration of competing antagonist, […] where the dose ratio (DR), relative to corresponding controls, was produced by a single concentration of antagonist [A], assuming competitive antagonism and Schild regression close to unity.

## COc1cc2nc(N3CCCN(C(=O)N4CCOCC4)CC3)nc(N)c2cc1OCC1CCC1 [Example 3, 4-Amino-6-cyclobutylmethyloxy-7-methoxy-2-[4-(4-morpholinecarbonyl)-1,4-diazepan-1-yl]quinazoline]
  pA2 value: 9.2
